In patent US20110028518A1, “DEXLANSOPRAZOLE PROCESS AND POLYMORPHS” (DR. REDDY'S LABORATORIES LTD., priority 2008, published 2011):

Assay: Storage stability studies (Example 27): appearance, PXRD, HPLC purity, impurities and chiral purity
Assay type: physicochemical
Conditions: for Chiral Purity / Highest Impurity / Purity / Sulfide / Sulfone: HPLC
Text: A high performance liquid chromatography (HPLC) method for measuring the chemical purity of dexlansoprazole or a compound of formula (VII) of the present application, and for determination of their corresponding impurities, involves the use of a YMC-PAK ODS-A 100×4.6, 3 μm or equivalent column.
A high performance liquid chromatography method useful for measuring the enantiomeric purity of dexlansoprazole or a compound of formula (VII) of the present application involves the use of a Chiralpak-IC, 250×4.6 mm or equivalent column.
Products from certain of the above examples and a crystalline dexlansoprazole, prepared according to Example 2 of U.S. Pat. No. 6,462,058, were tested for their storage stabilities. The samples were stored in tied clear polyethylene bags that were placed in sealed black polyethylene bags along with a silica gel desiccant pouch filled with nitrogen, and finally the black bags were placed into triple laminated foil bags along with a silica gel pouch and then sealed and stored in HDPE drum packages under the conditions noted in the following results tables. Samples were analyzed before storage, at intervals during storage, and after storage.
Samples were analyzed by HPLC for chemical purity, for:
a “sulfide” impurity, having a chemical name 2-[[{4-(2,2,2-trifluoroethoxy)-3-methylpyridine-2-yl}methyl]thio]-1H-benzimidazole and the following structure;
a “sulfone” impurity, having a chemical name 2-[[{4-(2,2,2-trifluoroethoxy)-3-methylpyridine-2-yl}methyl]sulfonyl]-1H-benzimidazole and the following structure;
and for chiral purity. Also given in the tables is the concentration of the highest unidentified impurity, as determined by HPLC, and the PXRD analysis result. All percentages given below are expressed on a weight basis.

[1] = Initial Analysis, before storage

With `Cc1c(OCC(F)(F)F)ccnc1C[S@@+]([O-])c1nc2ccccc2[nH]1` [Crystalline Drug, dexlansoprazole] the Appearance (After 1 Week at 2-8° C.) was “Cream color”, the PXRD (After 1 Week at 2-8° C.) was “Crystalline” and the “Chiral Purity” value (After 1 Week at 2-8° C.) was 88.02%. For the same compound, the “Highest Impurity” value (After 1 Week at 2-8° C.) was 0.14%, the Purity (After 1 Week at 2-8° C.) was 95.39% and the Sulfide (After 1 Week at 2-8° C.) was 2.48%. The Sulfone (After 1 Week at 2-8° C.) was 1.68%, the Appearance (After 1 Week at 25-35° C.) was “Cream color” and the PXRD (After 1 Week at 25-35° C.) was “Crystalline”. For the same compound, the “Chiral Purity” value (After 1 Week at 25-35° C.) was 87.8%, the “Highest Impurity” value (After 1 Week at 25-35° C.) was 0.14% and the Purity (After 1 Week at 25-35° C.) was 95.28%. For the same compound, the Sulfide (After 1 Week at 25-35° C.) was 2.48%, the Sulfone (After 1 Week at 25-35° C.) was 1.77% and the Appearance (After 2 Weeks at 2-8° C.) was “Cream color”. For the same compound, the PXRD (After 2 Weeks at 2-8° C.) was “Crystalline”, the “Chiral Purity” value (After 2 Weeks at 2-8° C.) was 88.49% and the “Highest Impurity” value (After 2 Weeks at 2-8° C.) was 0.13%. It also gave a Purity (After 2 Weeks at 2-8° C.) of 95.19%, a Sulfide (After 2 Weeks at 2-8° C.) of 2.36% and a Sulfone (After 2 Weeks at 2-8° C.) of 1.62%. The Appearance (After 2 Weeks at 25-35° C.) was “Cream color”, the PXRD (After 2 Weeks at 25-35° C.) was “Crystalline” and the “Chiral Purity” value (After 2 Weeks at 25-35° C.) was 88.34%. The “Highest Impurity” value (After 2 Weeks at 25-35° C.) was 0.13%, the Purity (After 2 Weeks at 25-35° C.) was 95.19% and the Sulfide (After 2 Weeks at 25-35° C.) was 2.36%. The Sulfone (After 2 Weeks at 25-35° C.) was 1.62%, the Appearance (After 3 Weeks at 2-8° C.) was “Cream color” and the PXRD (After 3 Weeks at 2-8° C.) was “Crystalline”. The “Chiral Purity” value (After 3 Weeks at 2-8° C.) was 88.34%, the “Highest Impurity” value (After 3 Weeks at 2-8° C.) was 0.14% and the Purity (After 3 Weeks at 2-8° C.) was 95.65%. For the same compound, the Sulfide (After 3 Weeks at 2-8° C.) was 2.31%, the Sulfone (After 3 Weeks at 2-8° C.) was 1.61% and the Appearance (After 3 Weeks at 25-35° C.) was “Cream color”. For the same compound, the PXRD (After 3 Weeks at 25-35° C.) was “Crystalline”, the “Chiral Purity” value (After 3 Weeks at 25-35° C.) was 88.27% and the “Highest Impurity” value (After 3 Weeks at 25-35° C.) was 0.13%. It also gave a Purity (After 3 Weeks at 25-35° C.) of 95.4%, a Sulfide (After 3 Weeks at 25-35° C.) of 2.39% and a Sulfone (After 3 Weeks at 25-35° C.) of 1.65%. The Appearance [1] was “Cream color”, the PXRD [1] was “Crystalline” and the “Chiral Purity” value [1] was 88.13%. The “Highest Impurity” value [1] was 0.15%, the Purity [1] was 95.4% and the Sulfide [1] was 2.41%. It also gave a Sulfone [1] of 1.66%.
In the case of `Cc1c(OCC(F)(F)F)ccnc1C[S@@+]([O-])c1nc2ccccc2[nH]1` [Example 8, dexlansoprazole], the Appearance (After 1 Week at 2-8° C.) is reported as “Light yellow”, the PXRD (After 1 Week at 2-8° C.) is reported as “Amorphous” and the “Chiral Purity” value (After 1 Week at 2-8° C.) is reported as 99.89%. For the same compound, the “Highest Impurity” value (After 1 Week at 2-8° C.) was 0.13%, the Purity (After 1 Week at 2-8° C.) was 97.21% and the Sulfide (After 1 Week at 2-8° C.) was 1.83%. For the same compound, the Sulfone (After 1 Week at 2-8° C.) was 0.63%, the Appearance (After 1 Week at 25-35° C.) was “Light yellow” and the PXRD (After 1 Week at 25-35° C.) was “Amorphous”. For the same compound, the “Chiral Purity” value (After 1 Week at 25-35° C.) was 99.86%, the “Highest Impurity” value (After 1 Week at 25-35° C.) was 0.14% and the Purity (After 1 Week at 25-35° C.) was 97.12%. The Sulfide (After 1 Week at 25-35° C.) was 1.84%, the Sulfone (After 1 Week at 25-35° C.) was 0.68% and the Appearance (After 2 Weeks at 2-8° C.) was “Light yellow”. For the same compound, the PXRD (After 2 Weeks at 2-8° C.) was “Amorphous”, the “Chiral Purity” value (After 2 Weeks at 2-8° C.) was 99.87% and the “Highest Impurity” value (After 2 Weeks at 2-8° C.) was 0.11%. For the same compound, the Purity (After 2 Weeks at 2-8° C.) was 97.21%, the Sulfide (After 2 Weeks at 2-8° C.) was 1.79% and the Sulfone (After 2 Weeks at 2-8° C.) was 0.63%. For the same compound, the Appearance (After 2 Weeks at 25-35° C.) was “Light yellow”, the PXRD (After 2 Weeks at 25-35° C.) was “Amorphous” and the “Chiral Purity” value (After 2 Weeks at 25-35° C.) was 99.86%. For the same compound, the “Highest Impurity” value (After 2 Weeks at 25-35° C.) was 0.11%, the Purity (After 2 Weeks at 25-35° C.) was 97.23% and the Sulfide (After 2 Weeks at 25-35° C.) was 0.63%. The Sulfone (After 2 Weeks at 25-35° C.) was 1.78%, the Appearance (After 3 Weeks at 2-8° C.) was “Light yellow” and the PXRD (After 3 Weeks at 2-8° C.) was “Amorphous”. The “Chiral Purity” value (After 3 Weeks at 2-8° C.) was 99.85%, the “Highest Impurity” value (After 3 Weeks at 2-8° C.) was 0.12% and the Purity (After 3 Weeks at 2-8° C.) was 97.27%. For the same compound, the Sulfide (After 3 Weeks at 2-8° C.) was 1.77%, the Sulfone (After 3 Weeks at 2-8° C.) was 0.62% and the Appearance (After 3 Weeks at 25-35° C.) was “Light yellow”. For the same compound, the PXRD (After 3 Weeks at 25-35° C.) was “Amorphous”, the “Chiral Purity” value (After 3 Weeks at 25-35° C.) was 99.84% and the “Highest Impurity” value (After 3 Weeks at 25-35° C.) was 0.15%. It also gave a Purity (After 3 Weeks at 25-35° C.) of 97%, a Sulfide (After 3 Weeks at 25-35° C.) of 1.79% and a Sulfone (After 3 Weeks at 25-35° C.) of 0.63%. The Appearance [1] was “Light yellow”, the PXRD [1] was “Amorphous” and the “Chiral Purity” value [1] was 99.86%. For the same compound, the “Highest Impurity” value [1] was 0.24%, the Purity [1] was 97.14% and the Sulfide [1] was 1.77%. It also gave a Sulfone [1] of 0.61%.
With `Cc1c(OCC(F)(F)F)ccnc1C[S@@+]([O-])c1nc2ccccc2[nH]1` [Example 16 (A), dexlansoprazole] the Appearance (After 1 Week at 2-8° C.) was “Light brown”, the PXRD (After 1 Week at 2-8° C.) was “Amorphous” and the “Chiral Purity” value (After 1 Week at 2-8° C.) was 96.57%. For the same compound, the “Highest Impurity” value (After 1 Week at 2-8° C.) was 0.09%, the Purity (After 1 Week at 2-8° C.) was 83.76% and the Sulfide (After 1 Week at 2-8° C.) was 13.78%. For the same compound, the Sulfone (After 1 Week at 2-8° C.) was 1.48%, the Appearance (After 1 Week at 25-35° C.) was “Light brown” and the PXRD (After 1 Week at 25-35° C.) was “Amorphous”. For the same compound, the “Chiral Purity” value (After 1 Week at 25-35° C.) was 96.56%, the “Highest Impurity” value (After 1 Week at 25-35° C.) was 0.14% and the Purity (After 1 Week at 25-35° C.) was 83.03%. The Sulfide (After 1 Week at 25-35° C.) was 13.83%, the Sulfone (After 1 Week at 25-35° C.) was 1.55% and the Appearance (After 2 Weeks at 2-8° C.) was “Light brown”. For the same compound, the PXRD (After 2 Weeks at 2-8° C.) was “Amorphous”, the “Chiral Purity” value (After 2 Weeks at 2-8° C.) was 96.86% and the “Highest Impurity” value (After 2 Weeks at 2-8° C.) was 0.17%. The Purity (After 2 Weeks at 2-8° C.) was 83.6%, the Sulfide (After 2 Weeks at 2-8° C.) was 13.63% and the Sulfone (After 2 Weeks at 2-8° C.) was 1.45%. The Appearance (After 2 Weeks at 25-35° C.) was “Light brown”, the PXRD (After 2 Weeks at 25-35° C.) was “Amorphous” and the “Chiral Purity” value (After 2 Weeks at 25-35° C.) was 96.49%. The “Highest Impurity” value (After 2 Weeks at 25-35° C.) was 1.16%, the Purity (After 2 Weeks at 25-35° C.) was 80.85% and the Sulfide (After 2 Weeks at 25-35° C.) was 13.8%. For the same compound, the Sulfone (After 2 Weeks at 25-35° C.) was 1.49%, the Appearance (After 3 Weeks at 2-8° C.) was “Light brown” and the PXRD (After 3 Weeks at 2-8° C.) was “Amorphous”. The “Chiral Purity” value (After 3 Weeks at 2-8° C.) was 96.73%, the “Highest Impurity” value (After 3 Weeks at 2-8° C.) was 0.07% and the Purity (After 3 Weeks at 2-8° C.) was 83.9%. The Sulfide (After 3 Weeks at 2-8° C.) was 13.69%, the Sulfone (After 3 Weeks at 2-8° C.) was 1.5% and the Appearance (After 3 Weeks at 25-35° C.) was “Light brown”. The PXRD (After 3 Weeks at 25-35° C.) was “Amorphous”, the “Chiral Purity” value (After 3 Weeks at 25-35° C.) was 96.67% and the “Highest Impurity” value (After 3 Weeks at 25-35° C.) was 0.8%. The Purity (After 3 Weeks at 25-35° C.) was 82.07%, the Sulfide (After 3 Weeks at 25-35° C.) was 13.69% and the Sulfone (After 3 Weeks at 25-35° C.) was 1.51%. For the same compound, the Appearance [1] was “Light brown”, the PXRD [1] was “Amorphous” and the “Chiral Purity” value [1] was 96.59%. For the same compound, the “Highest Impurity” value [1] was 0.08%, the Purity [1] was 84.42% and the Sulfide [1] was 13.43%. It also gave a Sulfone [1] of 1.45%.
